The record followed here is US11034960B2, “PKLR inhibition in the treatment of NAFLD and HCC” (ScandiEdge Therapeutics AB, priority 2017, dated 2021).

Series [1] deals with K562 cells. In words: Cell growth of K562 cells (Cell Counting Kit-8) after interference for 72 hours. In kind it is cell-based, human. As to conditions: C75 (0, 20, 40, 60, 80 μM), FIG. 2B. On the procedure:
(§1) RNA was isolated for RT-PCR after interference for 24 hours; GAPDH was set as the internal reference. Cell counting was performed after interference for 72 hours. Data are presented as the means±standard errors of five independent experiments. Comparisons were performed by one-way ANOVA. Samples without any interference were assigned as controls. * represents a significant difference compared with the value in the control group (P<0.05).
(§2) For subsequent experiments, K562 and HepG2, human immortalized myelogenous leukemia and hepatic cell lines, respectively, were selected. Both cell lines were cultured in RPMI-1640 medium (R2405, Sigma-Aldrich) supplemented with 10% fetal bovine serum (FBS, F2442, Sigma Aldrich) and incubated in 5% CO2 humidity at 37° C. […]
(§3) Total RNA was isolated with TRIzol reagent (15596026, Thermo Fisher Scientific) after treatment with C75 or siRNA for 24 hours. The expression profiles of key genes (FASN, PKLR in K562/HepG2, and PNPLA3, PCSK9 only in HepG2 cells) in the co-expression network were measured and analyzed via quantitative real-time PCR with iTaq Universal SYBR Green One-Step Kit (1725151, Bio-Rad), using anchored oligo (dT) primer based on CFX96™ detection system (Bio-Rad). […] Variation in cell proliferation was detected with a Cell Counting Kit-8 (CCK-8, CK04, Dojindo) after interference by C75/siRNA for 72 hours. […]

The test system of series [2] is HepG2 cells. The series is described as follows: Cell growth of HepG2 cells (Cell Counting Kit-8) after interference for 72 hours. The following applies: different concentrations of C75 (0, 20, 40, 60, 80 μM), FIG. 2D. Format: cell-based, human. The protocol:
as §1, §2, §3

Series [3] has as its system primary human hepatocytes. The series is described as follows: mRNA expression in primary human hepatocytes treated with C75 (TaqMan real-time PCR). Format: cell-based. The following applies: 40 μg/ml C75, 4, 6, 8 or 24 hours, FIG. 3F. The protocol:
Human primary hepatocytes were purchased from Biopredic International. Twenty-four hours after arrival (48 hours after isolation), human hepatocytes were treated with 40 μg/ml of C75 or dimethyl sulfoxide (DMSO) for 4, 6, 8 or 24 hours.
Total RNA was isolated from human hepatocytes and snap-frozen mouse liver with an RNeasy Mini Kit (Qiagen). cDNA was synthesized with a high-capacity cDNA Reverse Transcription Kit (Applied Biosystems) and random primers. The mRNA expression levels of genes of interest were analyzed via TaqMan real-time PCR in a ViiATM7 System (Applied Biosystems). The TaqMan Gene Expression assays used were Mm01263610_m1 (for mouse Pcsk9), Mm00662319_m1 (mouse Fasn), Mm00443090_m1 (mouse Pklr), Mm00504420_m1 (mouse Pnpla3), Mm01282499_m1 (mouse Hmgcr), Hs00545399_m1 (human PCSK9), Hs01005622_m1 (human FASN), Hs00176075_m1 (human PKLR), Hs00228747_m1 (human PNPLA3), and Hs00168352_m1 (human HMGCR) (all from Applied Biosystems). Hprt (mouse Mm03024075_m1) and GADPH (human Hs02758991_g1) (Applied Biosystems) were used as internal controls.

Series [4] has as its system HepG2 cells. The series is described as follows: RT-PCR gene expression in HepG2 cells after interference by C75 or PKLR-specific siRNA for 24 hours. In kind it is cell-based, human. The following applies: C75 (0, 40, 60 μM), FIG. 2C. On the procedure:
as §1
For subsequent experiments, K562 and HepG2, human immortalized myelogenous leukemia and hepatic cell lines, respectively, were selected. Both cell lines were cultured in RPMI-1640 medium (R2405, Sigma-Aldrich) supplemented with 10% fetal bovine serum (FBS, F2442, Sigma Aldrich) and incubated in 5% CO2 humidity at 37° C.
To confirm the speculated CN, chemical inhibitors and RNA interference (RNAi) assays were chosen to interfere with the immortalized cell lines (including K562 and HepG2) and the subsequent candidate gene expression and cell growth patterns were observed. More specifically, the experimental protocol was as follows: (1) C75 (C5490, Sigma-Aldrich), as a well-known fatty acid synthase [FAS] inhibitor, was added to cells at 80% confluence with a final concentration of 20, 40, 60, or 80 μM (taking cells without C75 interference as the control); (2) cells at 80% confluence were separately transfected with […] of Silencer® pre-designed PKLR-targeted siRNAs (clone ID: 53 (SEQ ID NO:2 and SEQ ID NO:3), 54 (SEQ ID NO:2 and SEQ ID NO:5), Life Technologies) at 15 nM by using Lipofectamine® RNAiMAX (13778075, Life Technologies). Cells incubated in medium with non-target negative control siRNA at 15 nM (4390843, Life Technologies) were assigned as the control.
Total RNA was isolated with TRIzol reagent (15596026, Thermo Fisher Scientific) after treatment with C75 or siRNA for 24 hours. The expression profiles of key genes (FASN, PKLR in K562/HepG2, and PNPLA3, PCSK9 only in HepG2 cells) in the co-expression network were measured and analyzed via quantitative real-time PCR with iTaq Universal SYBR Green One-Step Kit (1725151, Bio-Rad), using anchored oligo (dT) primer based on CFX96™ detection system (Bio-Rad). GAPDH was set as the internal control for normalization. The primer sequences were SEQ ID NO:9 (FASN forward), SEQ ID NO:10 (FASN reverse), SEQ ID NO:11 (PKLR forward), SEQ ID NO:12 (PKLR reverse), SEQ ID NO:13 (PNPLA3 forward), SEQ ID NO:14 (PNPLA3 reverse), SEQ ID NO:15 (PCSK9 forward), SEQ ID NO:16 (PCSK9 reverse), SEQ ID NO:17 (GAPDH forward) and SEQ ID NO:18 (GAPDH reverse). Variation in cell proliferation was detected with a Cell Counting Kit-8 (CCK-8, CK04, Dojindo) after interference by C75/siRNA for 72 hours. […]

Series [5] relates to K562 cells. In words: RT-PCR gene expression in K562 cells after interference by C75 or PKLR-specific siRNA for 24 hours. In kind it is cell-based, human. The following applies: C75 at different concentrations (0, 40, 60 μM), FIG. 2A. The protocol:
as §1, §2, §3

Series [6] has as its system HepG2 cells. The series is described as follows: Lipidomics measurement of triglycerides in HepG2 cells with PKLR downregulation. Format: cell-based, human. The protocol: To better clarify the genetic impact of PKLR on lipid deposition, cells were treated by siRNA and then tested by mass spectrometer for lipidomics data, sequentially. To be specific, HepG2 cells were transfected by siRNA (Assay ID: 53 with target on PKLR, applied by aforementioned method) for 72 hours and then harvested for lipidomics measurement. Correspondingly, cells treated with non-targeting siRNA (4390843, Thermo Fisher Scientific, USA) were assigned as control.
For lipidomics measurement, cells were extracted using butanol/methanol (BUME) as previously described (Lofgren et al., 2012). Internal standards (either deuterated or containing heptadecanoyl (C17:0) fatty acids) were added during the extraction. Analysis of triacylglycerols and phosphatidylcholines were made using direct infusion on a QTRAP 5500 mass spectrometer (Sciex, Concord, Canada) equipped with a robotic nanoflow ion source, the TriVersa NanoMate (Advion BioSciences, Ithaca, N.J.). Detection of triacylglycerols was made using neutral loss scanning in positive mode (Murphy et al., 2007). Phosphatidylcholines were analyzed in positive mode using m/z 184 (phosphocholine) as fragment ion (Brugger et al., 1997).

The test system of series [7] is PKLR. The series is described as follows: qPCR of target gene expression in HepG2 cells after siRNA or expression plasmid transfection. Format: cell-based, human. As to conditions: siRNA 50 nM, 72 hours, P<0.05. The protocol:
HepG2 cell line was purchased from ATCC and selected for subsequent genetic modification. Cells were routinely cultured in humidified incubator with 5% CO2 at 37°. Cells were maintained by RPMI 1640 medium (R2405, Sigma-Aldrich) with 10% fetal bovine serum (FBS, F7524, Sigma-Aldrich).
For downregulation of target genes, PKLR, PNPLA3, and PCSK9, RNAi experiment was performed by silencer predesigned siRNA kit (Assay ID: 53 for PKLR, 121938 for PNPLA3 and 103966 for PCSK9, Thermo Fisher Scientific, USA). According to the manufacturer's instructions, HepG2 cells were treated by specific siRNA at 50 nM of final concentration using reverse transfection on the help of Lipofectamine RNAiMAX for 72 hours. Negative Control for transfection (4390843, Thermo Fisher Scientific, USA) was selected as standard for comparison from the same company. […]
Cells were treated for experiment when they were grown to 80% confluence. […] Expressions of target genes were validated by quantitative real-time PCR (Schmittgen and Livak, 2008). […] And the relative expression of each gene was calculated by 2-ΔΔCT method described before (Schmittgen and Livak, 2008). β-actin was selected as internal reference gene for normalization.
All results of measurement were presented/shown by mean±SD and One-way ANOVA was applied for comparisons in quantitative covariates. […]

`C=C1C(=O)OC(CCCCCCCC)C1C(=O)O` (stereo not shown) [C75]: the cell growth entry in series [1] is recorded as “significant decrease”. For the same compound, the cell growth result in series [2] is on record as “significantly decreased”. Moreover, the “expression of FASN in relation to expression of PKLR, PCSK9, PNPLA3” value in series [3] was “interconnected”. In series [4], the FASN expression level result was “significantly decreased”, the PCSK9 expression level entry was “significantly decreased”, the PKLR expression level result is “significantly decreased” and the PNPLA3 expression level entry is recorded as “significantly decreased”. Also, in series [5], the FASN expression level result was “significantly decreased” and the PKLR expression level entry was “significantly decreased”.
Consider “siRNA 53: PKLR-targeted Silencer pre-designed siRNA; sense sequence SEQ ID NO:5, antisense sequence SEQ ID NO:6 (sense GGAGAUGAUCAAGGCCGGGTT; antisense CCCGGCCUUGAUCAUCUCCTT; chemistry not given here; listed as Homo sapiens)”, for which the “decrease of total triglyceride compared to negative control” value in series [6] (after adjusting based on the phosphatidylcholines levels) is recorded as “about 15%”. For the same compound, in series [6] (siRNA 72 hours vs non-targeting negative control, P<0.05), the triglyceride level entry was “significant decrease”. For the same compound, the “total triglyceride adjusted based on the phosphatidylcholines levels” value in series [6] (siRNA 72 hours, negative control 555.0±51.2) is 471.7±45.5. In addition, in series [7], the “inhibitory rate of PKLR expression (down-regulation vs negative control)” value is reported as 96%.
